Type in all cases: functional
A short description of assay [1]: Antioxidant activity assessed as trolox equivalent of hydroxyl radical scavenging activity by DMPO spin trap-based ESR spectrometric method.
Assay [2] in a line: Antioxidant activity assessed as trolox equivalent of singlet oxygen scavenging activity by TMPD spin trap-based ESR spectrometric method.
Assay [3] is described as follows: Antioxidant activity assessed as trolox equivalent of tert-butyl peroxyl radical scavenging activity by CYPMPO spin trap-based ESR spectrometric method.
Assay [4] is described as follows: Antioxidant activity assessed as trolox equivalent of alkoxyl radical scavenging activity by DMPO spin trap-based ESR spectrometric method.
The nature of assay [5]: Antioxidant activity assessed as trolox equivalent of methyl radical scavenging activity by DMPO spin trap-based ESR spectrometric method.
The nature of assay [6]: Antioxidant activity assessed as trolox equivalent of superoxide radical scavenging activity by CYPMPO spin trap-based ESR spectrometric method.
Assay [7] can be described thus: Antioxidant activity assessed as rate of methyl radical scavenging activity by DMPO spin trap-based ESR spectrometric method.

From ChEMBL document CHEMBL4229523, “Monoterpene's multiple free radical scavenging capacity as compared with the radioprotective agent cysteamine and amifostine” (Bioorg Med Chem Lett, 2018) come the findings set out here.

Consider `Cc1ccc(C(C)C)c(O)c1`, for which the Activity in assay [1] was 0.3 equiv; in assay [2], 0.16 equiv; in assay [3], 0.22 equiv; in assay [4] it was 0.013 equiv; in assay [5], 0 equiv; in assay [6] it was 0.24 equiv.

For the compound `NCCCNCCSP(=O)(O)O`, the Activity in assay [1] turned out to be 0.76 equiv; in assay [2], 0.17 equiv; in assay [3], 0.058 equiv; in assay [4], 0.054 equiv; in assay [5], 0.2 equiv; in assay [6], 0.3 equiv. The K in assay [7] came to 2.8 ×10⁶ /M/s.

Consider `CC1CCC(C(C)C)C(O)C1` (configuration not stated), for which the Activity in assay [1] was found to be 0.49 equiv; in assay [2], 0.22 equiv; in assay [3], 0.31 equiv; in assay [4], 0 equiv; in assay [5], 0 equiv; in assay [6] it was 0.39 equiv.

In the case of `C=CC(C)(O)CCC=C(C)C` (configuration not stated), the Activity in assay [1] was found to be 0.38 equiv; in assay [2], 0.046 equiv; in assay [3], 0 equiv; in assay [4], 0.045 equiv; in assay [5] it was 0 equiv; in assay [6], 0.27 equiv.

`NCCS`: the Activity in assay [1] is 1.5 equiv; in assay [2], 1.1 equiv; in assay [3] it was 0.08 equiv; in assay [4] it was 0.045 equiv; in assay [5], 0.18 equiv; in assay [6] it was 0.13 equiv. The K in assay [7] is 2.5 ×10⁶ /M/s.
